Test results taken from ChEMBL document CHEMBL1201862, “PubChem BioAssay data set” (2004).
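Interpolation was linear, between the two tested concentrations surrounding the appropriate level; five concentrations were tested over 48 hours in 96-well plates. GI50 marks 50% less growth.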 Active and inactive are the calls of the source. Cut-off read from the data, not from the text of the source: active = GI50 up to about 1.1 µM and inactive = higher.

Key:
Test in all cases: DTP human tumour cell line panel, 48 h
HOP-92 = system: HOP-92
SN12C = system: SN12C
SK-MEL-2 = system: SK-MEL-2
MOLT-4 = system: MOLT-4
KM12 = system: KM12
NCI-H460 = system: NCI-H460
SF-268 = system: SF-268
A549 = system: A549
M14 = system: M14
U-251 = system: U-251
OVCAR-4 = system: OVCAR-4
OVCAR-5 = system: OVCAR-5
NCI-H226 = system: NCI-H226
UACC-257 = system: UACC-257
ACHN = system: ACHN
786-0 = system: 786-0
HT-29 = system: HT-29
SNB-75 = system: SNB-75

Measured: GI50

CN/N=C(/Cc1occc(=O)c1O)C(=O)Nc1ccccc1C
inactive: HOP-92 20.4 µM | SN12C > 100 µM | SK-MEL-2 > 100 µM | MOLT-4 > 100 µM | KM12 > 100 µM | NCI-H460 > 100 µM | SF-268 > 100 µM | A549 > 100 µM | M14 > 100 µM | U-251 > 100 µM | OVCAR-4 > 100 µM | OVCAR-5 > 100 µM | NCI-H226 > 100 µM | UACC-257 > 100 µM | ACHN > 100 µM | 786-0 > 100 µM | HT-29 > 100 µM

Cc1cc(C(O)CCCc2ccccc2)cc(C)c1O (configuration not stated)
inactive: SN12C 41.8 µM | SK-MEL-2 33.8 µM | MOLT-4 19.4 µM | KM12 29.6 µM | SNB-75 16.4 µM | NCI-H460 36.6 µM | SF-268 28.4 µM | A549 32.7 µM | M14 56.1 µM | U-251 45.7 µM | OVCAR-5 43.9 µM | NCI-H226 24 µM | UACC-257 25.8 µM | ACHN 24.2 µM | 786-0 40.6 µM

CCOC(=O)c1cn(CC)c2cc3c(cc2c1=O)SCS3
inactive: HOP-92 > 100 µM | SN12C > 100 µM | SK-MEL-2 > 100 µM | MOLT-4 > 100 µM | KM12 > 100 µM | SNB-75 52.2 µM | NCI-H460 > 100 µM | SF-268 > 100 µM | A549 > 100 µM | M14 > 100 µM | U-251 > 100 µM | OVCAR-4 > 100 µM | OVCAR-5 > 100 µM | UACC-257 > 100 µM | ACHN > 100 µM | 786-0 > 100 µM | HT-29 > 100 µM

CCOC(=O)C1(C)CCCCC(=O)N1 (configuration not stated)
inactive: HOP-92 > 100 µM | SN12C > 100 µM | SNB-75 > 100 µM | NCI-H460 > 100 µM | SF-268 > 100 µM | A549 > 100 µM | M14 > 100 µM | U-251 > 100 µM | OVCAR-4 > 100 µM | ACHN > 100 µM | 786-0 > 100 µM | HT-29 > 100 µM

CC1=C(C)C(=O)c2c(cc3ccccn23)C1=O
inactive: SN12C 13.7 µM | MOLT-4 24.2 µM | KM12 16.6 µM | SNB-75 26.4 µM | NCI-H460 15.5 µM | SF-268 20.9 µM | A549 18.4 µM | M14 14.2 µM | U-251 14.1 µM | OVCAR-4 27.8 µM | OVCAR-5 45.6 µM | NCI-H226 26.8 µM | ACHN 32.2 µM | 786-0 27.9 µM | HT-29 18.5 µM

c1ccc([P+](c2ccccc2)(c2ccccc2)C2Sc3ccccc3S2)cc1
inactive: HOP-92 > 100 µM | SN12C 16.6 µM | KM12 21.9 µM | SNB-75 17.8 µM | NCI-H460 23.3 µM | SF-268 17.2 µM | A549 15 µM | M14 15.3 µM | U-251 16 µM | OVCAR-4 18.9 µM | OVCAR-5 19.7 µM | NCI-H226 12.5 µM | UACC-257 16.4 µM | ACHN 17.3 µM | 786-0 17.3 µM | HT-29 23 µM
